Test results: patent US6576634B1, “Pharmaceutical or dietetic preparation for improvement of fertility and sperm quality” (N.V. Nutricia, priority 2000, dated 2003)

Experiments:
[1] = system: men suffering from round cell idiopathic syndrome; details: 15 mg per day during 3 months; men with round cell idiopathic syndrome; cited from earlier work
[2] = system: fertile men and subfertile men; assay: Spermcount after oral administration of folic acid, zinc or both, versus initial spermcount; assay type: in vivo; set-up: key to Percentage improvement of spermcount after administration of active agents, compared to initial spermcount: 0 means about neutral; The number of + signs indicates activity; ++: The number of + signs indicates activity; +++: The number of + signs indicates activity; +++(+): The number of + signs indicates activity; details: for Percentage improvement of spermcount after administration of active agents, compared to initial spermcount: daily administration during 5 months (table head; text says three months)
[3] = system: males that suffer from idopathic oligospermia; details: 220 mg zinc sulphate; idiopathic oligospermia; cited from earlier work
[4] = system: fowl seminal plasma; details: zinc concentration above 3 μg per ml storage medium; cited from earlier work
[5] = system: spermatozoa; details: 10 mg over 30 days; cited from earlier work

Row | SMILES | spermatozoa number and fertility [1] | sperm counts ([2]; both groups, so also in fertile men) | Percentage improvement of spermcount after administration of active agents, compared to initial spermcount ([2]; fertile men) | Percentage improvement of spermcount after administration of active agents, compared to initial spermcount ([2]; subfertile men) | sperm and number of spermatozoa having normal morfology and motility [3] | fertility of fowl seminal plasma [4] | sperm count ([2]; folate alone, especially subfertile men) | sperm counts and motility and DNA content of spermatozoa [5]
1 | Nc1nc(=O)c2c([nH]1)NCC(CNc1ccc(C(=O)N[C@@H](CCC(=O)O)C(=O)O)cc1)N2C=O (mixture of isomers) [folinic acid] | increases spermatozoa number and fertility | – | – | – | – | – | – | –
2 | O=S(=O)([O-])[O-].[Zn+2] [15 mg zinc, zinc sulphate] | – | increases sperm counts in both groups | + | ++ | improved significantly | reduced the fertility | – | –
3 | Nc1nc2ncc(CNc3ccc(C(=O)N[C@@H](CCC(=O)O)C(=O)O)cc3)nc2c(=O)[nH]1 [5 mg folate, folic acid] | – | – | 0 | +++ | – | – | increases sperm count | did not result in an increase
